Each structure is given as a SMILES string.

Our source for the cytotoxicity values is ChEMBL document CHEMBL3507680, “University of Dundee, Gates Library screen for HepG2 cell viability”.

The data set in a line: Human HepG2 cell viability assay in 384 well format. The data set is classed as toxicity, cell-based. Set-up: dose 125 nL, time 70.5 hour; cytotoxicity at 70.5 h: concentration not given beside the values. Conditions: HepG2 cells, read-out: Inhibition.
`CC(C)Cc1noc(CNc2ccccc2CC(=O)N(C)C)n1`: the cytotoxicity at 70.5 h is -3.15%. Regarding `COCCN(Cc1coc(-c2ccc(OC)cc2)n1)C1CC1`, the cytotoxicity at 70.5 h is -1.17%. As for `O=C(CSCc1ccncc1)NCC1CCN(C2CC2)C1` (stereo not given), the cytotoxicity at 70.5 h came out at 1.83%. For `CC(C)c1cnc(CN2CCCS2(=O)=O)o1`, the cytotoxicity at 70.5 h is -1.78%.

In the case of `CCC(O)(CNCc1ncc[nH]1)c1ccc(Br)cc1` (stereo not given), the cytotoxicity at 70.5 h was -1.16%. Turning to `CCc1ccc(C(=O)N2CCCC(c3nn[nH]n3)C2)cc1` (stereo not given), the cytotoxicity at 70.5 h was -3.67%.

With `CCCc1n[nH]c(C2CN(CCNC3CCCCC3)CCO2)n1` (stereo not given), the cytotoxicity at 70.5 h was found to be 9.34%. In the case of `Cc1ncsc1C(=O)NCC1SCCc2ccccc21` (stereo not given) it was 6.22%; in that of `Cc1cc(CN(C)C(=O)Nc2cnc3c(c2)c(C)nn3C)no1`, -8.11%.

As to `CC(C)N(C)C(=O)C1CSCN1S(=O)(=O)c1cc(Cl)ccc1Cl` (stereo not given), the cytotoxicity at 70.5 h came out at 11.9%.

Turning to `CC(C)(C)OC(=O)NCC1CCN(C(=O)c2cc(Cl)c[nH]2)CC1`, the cytotoxicity at 70.5 h is -14.2%. As to `CC(C)N(C)C(=O)C1CSCN1S(=O)(=O)c1cccs1` (stereo not given), the cytotoxicity at 70.5 h is -8.56%. The result for `COc1ccccc1CC1CCCN(C(=O)c2cc[nH]n2)C1` (stereo not given) reads -6.57%; that for `O=C(O)CCCc1ccc2c(c1)CC(=O)N2`, -9.78%. For `CC1CCCCN1S(=O)(=O)NCCN/C(O)=C1/N=CC=CC1=O` (stereo not given), the cytotoxicity at 70.5 h was -5.82%.

On to `CC(NC(=O)NCCC(=O)OC(C)(C)C)c1nncn1C` (stereo not given), for which the cytotoxicity at 70.5 h is -0.412%. Turning to `CC(C(=O)Nc1cccc(Cl)c1SC(F)F)S(C)(=O)=O` (stereo not given), the cytotoxicity at 70.5 h was -3.11%. As to `CC(C(=O)Nc1ccccc1Sc1ccccc1)S(C)(=O)=O` (stereo not given), the cytotoxicity at 70.5 h was -3.46%. For `CC(CNC(=O)c1ccncc1F)Oc1ccc(F)cc1` (stereo not given), the cytotoxicity at 70.5 h was -0.61%. Take `COCCC1(CNC(=O)Nc2ccc(-n3nccn3)cc2)CCC1`: the cytotoxicity at 70.5 h turned out to be 13.3%. For the molecule `OC1(CNCc2cnc(N3CCOCC3)nc2)CCCCC1`, the cytotoxicity at 70.5 h was -5.66%. `COCCC1(CNC(=O)Nc2ccc(-n3cccn3)cc2)CCC1`: the cytotoxicity at 70.5 h came out at 2.32%. With `CC(C)S(=O)(=O)CCN1CCc2c(ncn2C2CC2)C1`, the cytotoxicity at 70.5 h was 3.39%. Turning to `O=C(O)CC(NC(=O)CCCc1cccs1)c1ccc(F)cc1` (stereo not given), the cytotoxicity at 70.5 h was -2.27%.

For the molecule `COc1ccc(CN(Cc2cc(C)no2)C2CC2)cc1`, the cytotoxicity at 70.5 h was found to be 0.248%. In the case of `CN1CCOC(CNCCCOc2ccc(C#N)cc2)C1` (stereo not given) it was -5.34%. Consider `Cc1cccc(N2CCN(CCS(=O)(=O)c3ccc(Br)cc3)CC2)c1C`, for which the cytotoxicity at 70.5 h was -9.15%. The result for `Cc1ccccc1N1CCN(CCS(=O)(=O)c2ccc(Br)cc2)CC1` reads 16%. For `O=S(=O)(CCN1CCN(c2ccccc2O)CC1)c1ccc(Br)cc1`, the cytotoxicity at 70.5 h is -8.18%.

With `Cc1nc(-c2nnc[nH]2)sc1C(=O)N1CCCC1c1cccs1` (stereo not given), the cytotoxicity at 70.5 h was -6.5%. In the case of `COC(=O)Cn1ccc(NS(=O)(=O)c2ccc3c(c2)CCC3)n1`, the cytotoxicity at 70.5 h was found to be 17%.

As for `Cc1nc(-c2nnc[nH]2)sc1C(=O)N1CCCC1c1ccsc1` (stereo not given), the cytotoxicity at 70.5 h is -5.22%. In the case of `Cc1nc(-c2nnc[nH]2)sc1C(=O)N1CCCC(C(F)(F)F)C1` (stereo not given) it was -4.51%; in that of `Cc1noc(CCNC(=O)NCc2ccc(N3CCCCC3)cc2)n1`, -5.09%. The result for `Cc1noc(CCNC(=O)NCc2ccc(OC3CCCC3)cc2)n1` reads 0.994%. `Cc1nc(-c2nnc[nH]2)sc1C(=O)N1CCCC1Cn1cccn1` (stereo not given): the cytotoxicity at 70.5 h was -3.3%.

Turning to `O=C(Cc1csc(-c2ccoc2)n1)NCCCN1CCCCC1`, the cytotoxicity at 70.5 h is -5.46%. Turning to `O=C(Cc1csc(-c2ccoc2)n1)NCCC(=O)N1CCCCC1`, the cytotoxicity at 70.5 h was -2.09%. For the molecule `CC(C)c1csc(NC(=O)NC2CCCN(c3cnn(C)c3)C2)n1` (stereo not given), the cytotoxicity at 70.5 h was -7.46%. Turning to `FC(F)Oc1ccc(CNCc2cc(Cl)c3c(c2)OCO3)cc1`, the cytotoxicity at 70.5 h is -5.5%.
